In this experiment the target is Cytochrome P450 2D6 (Homo sapiens, UniProt P10635). Briefly: Inhibitory activity against recombinant human Cytochrome P450 2D6 (CYP2D6) after incubated for 45 minutes.
Chain of Cytochrome P450 2D6 (P10635 whole entry): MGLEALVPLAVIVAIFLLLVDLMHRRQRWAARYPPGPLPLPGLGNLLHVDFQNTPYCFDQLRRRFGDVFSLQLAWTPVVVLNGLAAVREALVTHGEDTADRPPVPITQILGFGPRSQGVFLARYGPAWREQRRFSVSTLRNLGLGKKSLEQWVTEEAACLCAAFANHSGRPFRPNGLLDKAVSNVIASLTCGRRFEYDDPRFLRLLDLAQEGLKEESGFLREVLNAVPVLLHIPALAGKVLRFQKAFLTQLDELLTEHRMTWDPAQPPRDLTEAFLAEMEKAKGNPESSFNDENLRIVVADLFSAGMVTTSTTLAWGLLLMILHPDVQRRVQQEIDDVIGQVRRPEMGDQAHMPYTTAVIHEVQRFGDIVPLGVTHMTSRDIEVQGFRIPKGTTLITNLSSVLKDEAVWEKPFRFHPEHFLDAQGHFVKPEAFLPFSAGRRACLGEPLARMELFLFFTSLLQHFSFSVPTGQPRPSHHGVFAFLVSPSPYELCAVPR
The term IC50 denotes the concentration that inhibits the measured activity by half. `CCc1ccccc1OCC(O)CNC(C)(C)Cc1cc2ccccc2[nH]1` (stereo unspecified): the IC50 stood at 120 nM.

In the case of `COc1ccc2[nH]cc(CC(C)(C)NCC(O)COc3ccccc3C#N)c2c1` (stereo unspecified), the IC50 was determined as 50 nM.

Take `COc1ccc2c(OCC(O)CNC(C)C)cccc2c1` (stereo unspecified): the IC50 came out at 8400 nM.

Take `CC(C)NC[C@@H](O)COc1ccc(-c2ccccc2)c2ccccc12`: the half-maximal inhibitory concentration (IC50) was 21000 nM.

For the compound `CC(C)(C)NCC(O)COc1ccccc1` (stereo unspecified), the IC50 amounted to 28000 nM.

For `COc1ccc2c(CC(C)(C)NCC(O)COc3ccccc3C#N)c[nH]c2c1` (stereo unspecified), the IC50 worked out at 420 nM.

Regarding `C=CCOc1ccc(OCC(O)CNC(C)C)cc1` (stereo unspecified), the IC50 amounted to 21000 nM.

Consider `CC(C)NCC(O)COc1ccc(CCOCC2CC2)cc1` (stereo unspecified) [BETAXOLOL], for which the IC50 worked out at 66000 nM.

For `CC(C)NCC(O)COc1ccccc1` (stereo unspecified), the IC50 came to 18000 nM.

Consider `COCCc1ccc(OCC(O)CNC(C)(C)CSc2ccccc2C)cc1` (stereo unspecified), for which the IC50 stood at 280 nM.

Regarding `CC(C)N[C@@H](C)C(O)COc1cccc2ccccc12` (stereo partly specified), the 50% inhibitory concentration (IC50) turned out to be 3800 nM.

Turning to `CC(C)(Cc1csc2ccccc12)NCC(O)COc1ccccc1C#N` (stereo unspecified), the IC50 came to 50 nM.

As for `CCc1cccc2cc(CC(O)CNC(C)(C)C)oc12` (stereo unspecified), the IC50 was determined as 4800 nM.

In the case of `Cc1ccccc1OCC(O)CNC(C)(C)Cc1cc2ccccc2n1C` (stereo unspecified), the IC50 was found to be 90 nM.

With `CC(C)(Cc1c[nH]c2ccc(O)cc12)NCC(O)COc1ccccc1C#N` (stereo unspecified), the IC50 stood at 80 nM.

With `CC(C)(Cc1c[nH]c2ccccc12)NCC(O)COc1c(C#N)ccc2ccccc12` (stereo unspecified), the IC50 was 50 nM.

For the origin of these results see ChEMBL document CHEMBL1139585, “A 3D-QSAR model for CYP2D6 inhibition in the aryloxypropanolamine series” (Bioorg Med Chem Lett, 2005).
